Source: patent publication US9315491B2 (DEVELOPMENT CENTER FOR BIOTECHNOLOGY, priority 2009, dated 2016)

target: PI3K (p110α/p85α) (Homo sapiens (Human), UniProt P42336); assay: PI3K HTRF enzyme assay, p110α/p85α; format: biochemical; conditions: read-out: % inhibition @ 500 nM p110α; compound at 500 nM, 10 μM ATP
Experimental: Recombinant PI3K (p110α/p85α) and PI3K (p110β/p85α) were from Millipore. […] Briefly, the compounds of interest dissolved in 100% DMSO were dispensed in all wells, following which the mixture of PIP2 and enzyme was added. PI3K (p110α/p85α) and PI3K (p110β/p85α) enzyme reactions were initiated in the presence of 10 μM and 100 μM ATP, respectively, and incubated for 30 min at room temperature. STOP solution prepared 2 hours prior to use was added to stop reactions, and mixed well. Detection solution prepared 2 hours prior to use was added, and incubated at room temperature for 17 hours in the dark. […] HTRF ration was calculated as follows: […]

Chain of PI3K (p110α/p85α) (P42336 whole entry, species assumed): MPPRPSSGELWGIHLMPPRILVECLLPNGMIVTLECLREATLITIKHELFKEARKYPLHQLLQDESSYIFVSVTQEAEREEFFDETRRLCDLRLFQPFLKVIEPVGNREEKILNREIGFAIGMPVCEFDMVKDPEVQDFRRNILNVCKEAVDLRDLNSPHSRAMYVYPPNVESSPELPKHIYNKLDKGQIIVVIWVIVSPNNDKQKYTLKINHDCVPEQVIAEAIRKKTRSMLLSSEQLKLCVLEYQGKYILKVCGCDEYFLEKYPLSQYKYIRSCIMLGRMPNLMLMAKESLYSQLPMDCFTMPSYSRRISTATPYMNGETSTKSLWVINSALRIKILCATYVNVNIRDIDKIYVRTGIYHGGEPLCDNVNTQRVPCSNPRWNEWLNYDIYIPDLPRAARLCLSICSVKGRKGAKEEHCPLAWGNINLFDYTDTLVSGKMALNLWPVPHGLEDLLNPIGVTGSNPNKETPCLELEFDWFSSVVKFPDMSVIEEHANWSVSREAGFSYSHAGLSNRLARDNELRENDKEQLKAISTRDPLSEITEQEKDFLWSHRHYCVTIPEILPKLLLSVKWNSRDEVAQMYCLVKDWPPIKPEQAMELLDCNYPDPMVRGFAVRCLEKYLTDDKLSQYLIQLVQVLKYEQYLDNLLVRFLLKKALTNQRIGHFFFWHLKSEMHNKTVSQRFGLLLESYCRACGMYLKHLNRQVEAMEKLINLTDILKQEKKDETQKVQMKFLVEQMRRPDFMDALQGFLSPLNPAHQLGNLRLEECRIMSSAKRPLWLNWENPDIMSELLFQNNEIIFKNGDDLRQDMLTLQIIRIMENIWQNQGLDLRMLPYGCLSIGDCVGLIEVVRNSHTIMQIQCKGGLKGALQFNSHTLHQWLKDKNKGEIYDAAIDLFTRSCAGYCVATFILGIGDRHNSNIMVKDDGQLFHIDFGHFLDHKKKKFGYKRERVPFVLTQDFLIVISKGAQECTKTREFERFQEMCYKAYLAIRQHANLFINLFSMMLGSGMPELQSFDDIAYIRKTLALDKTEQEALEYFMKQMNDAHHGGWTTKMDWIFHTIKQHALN
Chain of PI3K (p110α/p85α) (P27986 whole entry partner, species assumed): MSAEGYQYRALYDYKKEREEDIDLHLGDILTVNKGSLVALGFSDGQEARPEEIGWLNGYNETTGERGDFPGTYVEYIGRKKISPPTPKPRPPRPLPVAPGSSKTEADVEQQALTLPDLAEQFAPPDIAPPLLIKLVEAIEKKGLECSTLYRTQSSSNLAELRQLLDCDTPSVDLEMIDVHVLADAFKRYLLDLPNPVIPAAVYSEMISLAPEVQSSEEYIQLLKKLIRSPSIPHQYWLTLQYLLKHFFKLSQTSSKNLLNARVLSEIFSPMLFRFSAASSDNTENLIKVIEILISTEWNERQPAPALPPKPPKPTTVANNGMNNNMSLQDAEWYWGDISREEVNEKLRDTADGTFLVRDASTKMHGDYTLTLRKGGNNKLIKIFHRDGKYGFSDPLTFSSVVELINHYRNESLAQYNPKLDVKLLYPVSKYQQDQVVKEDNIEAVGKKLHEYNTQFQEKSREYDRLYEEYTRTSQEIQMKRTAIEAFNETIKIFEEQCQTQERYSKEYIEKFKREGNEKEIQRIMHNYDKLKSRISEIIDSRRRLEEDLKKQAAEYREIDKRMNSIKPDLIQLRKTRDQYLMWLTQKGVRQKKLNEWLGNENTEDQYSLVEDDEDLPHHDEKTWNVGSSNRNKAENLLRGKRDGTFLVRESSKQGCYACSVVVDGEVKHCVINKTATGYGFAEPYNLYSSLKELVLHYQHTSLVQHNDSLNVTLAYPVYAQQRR

Compound | inhibition at 0.5 µM
CSc1cnc(-c2ccc(NC(=O)Nc3ccc(C(N)=O)cc3)cc2)nc1N1CCOCC1 [MTR-0267, 4-{3-[4-(5-Methylsulfanyl-4-morpholin-4-yl-pyrimidin-2-yl)-phenyl]-ureido}-benzamide] | 83.7%
CSc1c(Cl)nc(-c2ccc(NC(=O)Nc3ccc(C(=O)N4CCN(C)CC4)cc3)cc2)nc1N1CCOCC1 [MTR-0271, 1-[4-(4-Chloro-5-methylsulfanyl-6-morpholin-4-yl-pyrimidin-2-yl)-phenyl]-3-[4-(4-methyl-piperazine-1-carbonyl)-phenyl]-urea] | 94.5%
CCOC(=O)c1nc(-c2ccc(NC(=O)Nc3ccc(S(N)(=O)=O)cc3)cc2)nc(N2CCOCC2)c1OCC [MTR-0273, 5-Ethoxy-6-morpholin-4-yl-2-{4-[3-(4-sulfamoyl-phenyl)-ureido]-phenyl}-pyrimidine-4-carboxylic acid ethyl ester] | 50.2%
CCOC(=O)c1nc(-c2ccc(NC(=O)Nc3ccc(C(=O)N4CCN(C)CC4)cc3)cc2)nc(N2CCOCC2)c1OCC [MTR-0274, 5-Ethoxy-2-(4-{3-[4-(4-methyl-piperazine-1-carbonyl)-phenyl]-ureido}-phenyl)-6-morpholin-4-yl-pyrimidine-4-carboxylic acid ethyl ester] | 59%
CCOC(=O)c1nc(-c2ccc(NC(=O)Nc3ccc(C(=O)NCCN(C)C)cc3)cc2)nc(N2CCOCC2)c1OCC [MTR-0277, 2-(4-{3-[4-(2-Dimethylamino-ethylcarbamoyl)-phenyl]-ureido}-phenyl)-5-ethoxy-6-morpholin-4-yl-pyrimidine-4-carboxylic acid ethyl ester] | 61.9%
CCOC(=O)c1nc(-c2ccc(NC(=O)Nc3ccc(C(=O)N4CCOCC4)cc3)cc2)nc(N2CCOCC2)c1OCC [MTR-0278, 5-Ethoxy-2-(4-{3-[4-(morpholine-4-carbonyl)-phenyl]-ureido}-phenyl)-6-morpholin-4-yl-pyrimidine-4-carboxylic acid ethyl ester] | 58.6%
COc1cnc(-c2ccc(NC(=O)Nc3ccc(C(N)=O)cc3)cc2)nc1N1CCOCC1 [MTR-0282, 4-{3-[4-(5-Methoxy-4-morpholin-4-yl-pyrimidin-2-yl)-phenyl]-ureido}-benzamide] | 76.8%
COc1cnc(-c2ccc(NC(=O)Nc3ccc(S(N)(=O)=O)cc3)cc2)nc1N1CCOCC1 [MTR-0283, 4-{3-[4-(5-Methoxy-4-morpholin-4-yl-pyrimidin-2-yl)-phenyl]-ureido}-benzenesulfonamide] | 72.9%
CSc1cnc(-c2ccc(NC(=O)Nc3ccc(S(N)(=O)=O)cc3)cc2)nc1N1CCOCC1 [MTR-0288, 4-{3-[4-(5-Methylsulfanyl-4-morpholin-4-yl-pyrimidin-2-yl)-phenyl]-ureido}-benzenesulfonamide] | 79.2%
CCOC(=O)c1nc(-c2ccc(NC(=O)Nc3ccc4oc(=O)[nH]c4c3)cc2)nc(N2CCOCC2)c1OCC [MTR-0299, 5-Ethoxy-6-morpholin-4-yl-2-{4-[3-(2-oxo-2,3-dihydro-benzooxazol-5-yl)-ureido]-phenyl}-pyrimidine-4-carboxylic acid ethyl ester] | 44.3%
CSc1c(Cl)nc(-c2ccc(NC(=O)Nc3ccc(C(=O)N4CCOCC4)cc3)cc2)nc1N1CCOCC1 [MTR-0308, 1-[4-(4-Chloro-5-methylsulfanyl-6-morpholin-4-yl-pyrimidin-2-yl)-phenyl]-3-[4-(morpholine-4-carbonyl)-phenyl]-urea] | 106%
COc1cnc(-c2ccc(NC(=O)Nc3cccc(C(N)=O)c3)cc2)nc1N1CCOCC1 [MTR-0313, 3-{3-[4-(5-Methoxy-4-morpholin-4-yl-pyrimidin-2-yl)-phenyl]-ureido}-benzamide] | 86.9%
CSc1cnc(-c2ccc(NC(=O)Nc3ccc(C(=O)O)cc3)cc2)nc1N1CCOCC1 [MTR-0316, 4-{3-[4-(5-Methylsulfanyl-4-morpholin-4-yl-pyrimidin-2-yl)-phenyl]-ureido}-benzoic acid] | 55.9%
CCOC(=O)c1nc(-c2ccc(NC(=O)Nc3ccc(N4CCOCC4=O)cc3)cc2F)nc(N2CCOCC2)c1OCC [MTR-0322, 5-Ethoxy-2-(2-fluoro-4-{3-[4-(3-oxo-morpholin-4-yl)-phenyl]-ureido}-phenyl)-6-morpholin-4-yl-pyrimidine-4-carboxylic acid ethyl ester] | 44.2%
CCOc1cnc(-c2ccc(NC(=O)Nc3ccc(C(N)=O)cc3)cc2)nc1N1CCOCC1 [MTR-0323, 4-{3-[4-(5-Ethoxy-4-morpholin-4-yl-pyrimidin-2-yl)-phenyl]-ureido}-benzamide] | 90.8%
CCOc1cnc(-c2ccc(NC(=O)Nc3ccc(N4CCOCC4=O)cc3)cc2)nc1N1CCOCC1 [MTR-0325, 1-[4-(5-Ethoxy-4-morpholin-4-yl-pyrimidin-2-yl)-phenyl]-3-[4-(3-oxo-morpholin-4-yl)-phenyl]-urea] | 91.5%
CCOc1cnc(-c2ccc(NC(=O)Nc3ccc(S(N)(=O)=O)cc3)cc2)nc1N1CCOCC1 [MTR-0326, 4-{3-[4-(5-Ethoxy-4-morpholin-4-yl-pyrimidin-2-yl)-phenyl]-ureido}-benzenesulfonamide] | 90.7%
CSc1c(Cl)nc(-c2ccc(NC(=O)Nc3ccc(NS(C)(=O)=O)cc3)cc2)nc1N1CCOCC1 [MTR-0347, N-(4-{3-[4-(4-Chloro-5-methylsulfanyl-6-morpholin-4-yl-pyrimidin-2-yl)-phenyl]-ureido}-phenyl)-methanesulfonamide] | 80.6%
COc1cnc(-c2ccc(NC(=O)Nc3ccc(C(=O)O)cc3)cc2)nc1N1CCOCC1 [MTR-0351, 4-{3-[4-(5-Methoxy-4-morpholin-4-yl-pyrimidin-2-yl)-phenyl]-ureido}-benzoic acid] | 52.3%
CCOc1cnc(-c2ccc(NC(=O)Nc3ccc(NC(C)=O)cc3)cc2)nc1N1CCOCC1 [MTR-0368, N-(4-{3-[4-(5-Ethoxy-4-morpholin-4-yl-pyrimidin-2-yl)-phenyl]-ureido}-phenyl)-acetamide] | 101%
CCOC(=O)c1nc(-c2ccc(NC(=O)Nc3ccc(NC(C)=O)cc3)cc2)nc(N2CCOCC2)c1OCC [MTR-0370, 2-{4-[3-(4-Acetylamino-phenyl)-ureido]-phenyl}-5-ethoxy-6-morpholin-4-yl-pyrimidine-4-carboxylic acid ethyl ester] | 61.8%
CSc1c(Cl)nc(-c2ccc(NC(=O)Nc3ccc4oc(=O)[nH]c4c3)cc2)nc1N1CCOCC1 [MTR-0372, 1-[4-(4-Chloro-5-methylsulfanyl-6-morpholin-4-yl-pyrimidin-2-yl)-phenyl]-3-(2-oxo-2,3-dihydro-benzooxazol-5-yl)-urea] | 95.5%
CSc1cnc(-c2ccc(NC(=O)Nc3ccc(NS(C)(=O)=O)cc3)cc2)nc1N1CCOCC1 [MTR-0376, N-(4-{3-[4-(5-Methylsulfanyl-4-morpholin-4-yl-pyrimidin-2-yl)-phenyl]-ureido}-phenyl)-methanesulfonamide] | 79.4%
CSc1cnc(-c2ccc(NC(=O)Nc3ccc(N4CCOCC4=O)cc3)cc2F)nc1N1CCOCC1 [MTR-0378, 1-[3-Fluoro-4-(5-methylsulfanyl-4-morpholin-4-yl-pyrimidin-2-yl)-phenyl]-3-[4-(3-oxo-morpholin-4-yl)-phenyl]-urea] | 84.5%
